Experimental data from article PMC6664820, “Novel natural and synthetic inhibitors of solute carriers SGLT1 and SGLT2” (Pharmacology Research & Perspectives, 2019).
Counter-ions that a name gives are not always drawn. Like-named read-outs stand apart in the source and are kept apart here.

Tests used:
[1] = test system: CHO‐hSGLT1/2 cells; experiment: Cytotoxicity assay (ToxiLight, adenylate kinase leakage into CHO‐SGLT1/2 inhibition assay media); design: CYTOTOXICITY / CY[…], mean / CYTOTOXICITY (% of vehicle control) Mean / CYTOTOXICITY, mean / CY[…] (% of vehicle control) Mean: dose or concentration left out as unconfirmed; details: mean; for CY[…] 50 mM: at 50 mM (so in the source);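 on all read-outs here: bioluminescent read-out of adenylate kinase released from lysed cells into the medium, given relative to DMSO vehicle control defined as 0%, higher meaning more cytolysis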
Protocol: The cytotoxicity of representative SGLT1/2 inhibitors and compounds from the different chemical clusters was tested. Cytotoxicity was determined using the ToxiLight bioassay kit according to the supplier's instructions. This nondestructive assay measures leakage of the enzyme adenylate kinase (AK) from damaged cells into the CHO‐SGLT1/2 inhibition assay media, ie the degree of cytolysis. […] Next, bioluminescence was measured using a FlexStation 3 Multi‐Mode Microplate Reader (Molecular Devices) by 1 second integrated reading. Cytotoxicity was expressed as the percentage of bioluminescence of the DMSO vehicle control which was set at 0%. If applicable, statistical outliers were determined using Grubbs’ test (alpha = 0.05) and excluded for calculation of the mean ± SD.

[2] = molecular target: T1, hSGLT2 (Homo sapiens, UniProt P31639); experiment: SGLT2 inhibition assay for validation of screening hits and similar compounds (1‐NBD‐glucose uptake, CHO‐hSGLT2 cells); type: cell-based; design: activity: dose or concentration left out as unconfirmed; details: for activity: compound, normalized 1-NBD-glucose uptake, CHO-hSGLT2 cells; for activity / remaining activity at 5 µM / remaining activity at 50 µM: mean; for remaining activity at 5 µM / remaining activity at 50 µM: 0.5 h, concentration not given, read-out: NORMALIZED SGLT2 ACTIVITY (%)
T1 sequence (P31639 1-672): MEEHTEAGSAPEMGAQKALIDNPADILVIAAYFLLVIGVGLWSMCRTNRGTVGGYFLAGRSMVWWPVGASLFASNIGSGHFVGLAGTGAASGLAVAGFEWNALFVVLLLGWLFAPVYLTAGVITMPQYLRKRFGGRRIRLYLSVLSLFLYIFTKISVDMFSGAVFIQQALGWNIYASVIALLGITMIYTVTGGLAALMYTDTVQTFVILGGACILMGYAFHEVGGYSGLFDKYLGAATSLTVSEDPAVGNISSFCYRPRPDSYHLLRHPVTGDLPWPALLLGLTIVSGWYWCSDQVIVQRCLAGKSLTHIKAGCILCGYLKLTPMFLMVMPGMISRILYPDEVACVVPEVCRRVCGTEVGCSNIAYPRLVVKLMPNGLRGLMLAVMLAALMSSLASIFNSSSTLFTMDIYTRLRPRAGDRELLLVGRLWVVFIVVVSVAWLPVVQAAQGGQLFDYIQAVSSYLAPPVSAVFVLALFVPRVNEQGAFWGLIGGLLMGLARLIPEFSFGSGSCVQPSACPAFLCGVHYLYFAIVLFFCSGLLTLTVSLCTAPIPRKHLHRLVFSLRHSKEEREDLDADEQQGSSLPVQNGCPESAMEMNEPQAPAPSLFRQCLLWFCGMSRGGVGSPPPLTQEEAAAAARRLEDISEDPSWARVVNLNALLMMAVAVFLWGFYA

[3] = molecular target: T2, SGLT1 (Homo sapiens, UniProt P13866); experiment: SGLT1 inhibition assay for validation of screening hits and similar compounds (1‐NBD‐glucose uptake, CHO‐hSGLT1 cells); type: cell-based; design: activity: dose or concentration left out as unconfirmed; details: for activity: compound, normalized 1-NBD-glucose uptake, CHO-hSGLT1 cells; for activity / remaining activity at 5 µM / remaining activity at 50 µM: mean; for remaining activity at 5 µM / remaining activity at 50 µM: 0.5 h, concentration not given, read-out: NORMALIZED SGLT1 ACTIVITY (%)
T2 sequence (P13866 1-664): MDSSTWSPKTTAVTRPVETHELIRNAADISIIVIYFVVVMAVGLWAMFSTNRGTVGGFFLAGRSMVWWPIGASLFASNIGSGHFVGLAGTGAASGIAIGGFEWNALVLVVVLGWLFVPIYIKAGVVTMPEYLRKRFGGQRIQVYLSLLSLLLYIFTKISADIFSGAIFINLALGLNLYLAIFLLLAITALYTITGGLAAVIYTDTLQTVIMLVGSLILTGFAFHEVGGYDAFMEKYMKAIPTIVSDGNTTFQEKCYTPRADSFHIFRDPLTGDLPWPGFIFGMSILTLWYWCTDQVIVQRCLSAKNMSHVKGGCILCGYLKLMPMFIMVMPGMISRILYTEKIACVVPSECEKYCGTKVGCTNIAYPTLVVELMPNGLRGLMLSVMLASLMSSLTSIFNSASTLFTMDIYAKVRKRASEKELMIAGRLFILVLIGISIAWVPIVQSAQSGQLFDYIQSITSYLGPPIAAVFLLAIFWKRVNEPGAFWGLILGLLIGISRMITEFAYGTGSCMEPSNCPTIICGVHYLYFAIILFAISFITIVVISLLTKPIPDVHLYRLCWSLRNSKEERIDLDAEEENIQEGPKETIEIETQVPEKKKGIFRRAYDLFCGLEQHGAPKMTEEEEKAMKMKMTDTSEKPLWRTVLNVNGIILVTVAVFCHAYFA

[4] = ratio of normalized SGLT2 to SGLT1 activity at 5 uM

## O=C1c2cc(CO)cc(O)c2C(=O)c2c(O[C@@H]3O[C@H](CO)[C@@H](O)[C@H](O)[C@H]3O)cccc21 [Aloe-emodin-8-O-b-D-glucopyranoside]
[1]
  CYTOTOXICITY (% of vehicle control) Mean: -3.25 % of vehicle control
[2]
  activity: 100%
[2]; [4]
  SGLT2/SGLT1 ACTIVITY RATIO 5 uM Mean: 1.0
[3]
  activity: 100%

## C[C@@H]1O[C@@H](O[C@H]2[C@H](O[C@H]3CC[C@@]4(C)[C@@H](CC[C@]5(C)[C@@H]4CC=C4[C@@H]6CC(C)(C)CC[C@]6(C(=O)O)CC[C@]45C)[C@]3(C)CO)OC[C@H](O)[C@@H]2O)[C@H](O)[C@H](O[C@@H]2O[C@H](CO)[C@@H](O)[C@H](O)[C@H]2O)[C@H]1O [Kalopanaxsaponin H]
[1]
  CYTOTOXICITY: -33
[2]
  remaining activity at 5 µM: 117%
  remaining activity at 50 µM: 110%
[3]
  remaining activity at 5 µM: 104%
  remaining activity at 50 µM: 99%

## CC1(C)Oc2ccc3ccc(=O)oc3c2[C@H](O)[C@@H]1O [cis-Khellactone]
[1]
  CYTOTOXICITY (% of vehicle control) Mean: -9 % of vehicle control
[2]
  activity: 95%
[2]; [4]
  SGLT2/SGLT1 ACTIVITY RATIO 5 uM Mean: 0.9
[3]
  activity: 102%

## CCOC(=O)c1ccc(OC2OC(CO)C(O)C(O)C2O)cc1 (stereo not drawn) [Clivicolide]
[1]
  CYTOTOXICITY (% of vehicle control) Mean: 12 % of vehicle control
[2]
  activity: 111%
[2]; [4]
  SGLT2/SGLT1 ACTIVITY RATIO 5 uM Mean: 1.1
[3]
  activity: 99%

## C=C[C@@]1(C)CC(=O)[C@]2(O)[C@@]3(C)[C@@H](O)CCC(C)(C)[C@@H]3[C@H](O)[C@H](OC(C)=O)[C@@]2(C)O1 [Forskolin]
[1]
  CY[…] 50 mM: 12
[2]
  remaining activity at 5 µM: 103%
  remaining activity at 50 µM: 95%
[3]
  remaining activity at 5 µM: 89%
  remaining activity at 50 µM: 79%

## Oc1ccc(/C=C/c2cc(O)cc3c2[C@@H](c2cc(O)cc(O)c2)[C@H](c2ccc(O)cc2)O3)cc1 [(-)-e-Viniferin]
[1]
  CYTOTOXICITY: -9
[2]
  remaining activity at 5 µM: 107%
  remaining activity at 50 µM: 65%
[3]
  remaining activity at 5 µM: 106%
  remaining activity at 50 µM: 117%

## COc1cc(/C=C/c2cc(O)cc(O)c2)c2c(c1)O[C@H](c1ccc(OC)c(O)c1)[C@H]2c1cc(O)cc(O)c1 [Shegansu B]
[1]
  CYTOTOXICITY: -25
[2]
  remaining activity at 5 µM: 101%
  remaining activity at 50 µM: 103%
[3]
  remaining activity at 5 µM: 100%
  remaining activity at 50 µM: 100%

## C1CCC(C(CC2CCCCN2)C2CCCCC2)CC1 (stereo not drawn) [Perhexiline maleate salt]
[1]
  CY[…] 50 mM: 0.684
[2]
  remaining activity at 5 µM: 88%
  remaining activity at 50 µM: 38%
[3]
  remaining activity at 5 µM: 98%
  remaining activity at 50 µM: 49%

## C=C(C)C(CC=C(C)C)Cc1c(O)cc2c(c1O)C(=O)CC(c1ccc(O)cc1O)O2 (stereo not drawn) [Kushenol F]
[1]
  CYTOTOXICITY (% of vehicle control) Mean: 15 % of vehicle control
[2]
  SGLT2/SGLT1 ACTIVITY RATIO 5 uM Mean: 1.1
  SGLT2/SGLT1 ACTIVITY RATIO 50 mM Mean: 1.1
[3]
  activity: 109%

## COc1ccc(-c2coc3cc(O[C@@H]4O[C@H](CO)[C@@H](O)[C@H](O)[C@H]4O)c(OC)cc3c2=O)cc1OC [Cladrastin-7-O-b-D-glucopyranoside]
[1]
  CYTOTOXICITY (% of vehicle control) Mean: -23 % of vehicle control
[2]
  activity: 103%
[2]; [4]
  SGLT2/SGLT1 ACTIVITY RATIO 5 uM Mean: 1.0
[3]
  activity: 104%

## COc1cc(O)c2c(=O)c(-c3ccc(OC4OC(CO)C(O)C(O)C4O)cc3)coc2c1 (stereo not drawn) [Prunetin-4-p-galactoside]
[1]
  CYTOTOXICITY (% of vehicle control) Mean: -26 % of vehicle control
[2]
  activity: 100%
[2]; [4]
  SGLT2/SGLT1 ACTIVITY RATIO 5 uM Mean: 1.2
[3]
  activity: 81%

## CC=C(C)C(=O)O[C@H]1c2c(ccc3ccc(=O)oc23)OC(C)(C)[C@H]1OC(=O)C(C)=CC [Praeruptorin B - INDOFINE]
[1]
  CYTOTOXICITY (% of vehicle control) Mean: -15 % of vehicle control
[2]
  activity: 92%
[2]; [4]
  SGLT2/SGLT1 ACTIVITY RATIO 5 uM Mean: 1.0
[3]
  activity: 91%

## CN1[C@@H](CC(=O)c2ccccc2)CCC[C@H]1C[C@H](O)c1ccccc1 [(-)-Lobeline HCl]
[1]
  CY[…] 50 mM: -18
[2]
  remaining activity at 5 µM: 97%
  remaining activity at 50 µM: 63%
[3]
  remaining activity at 5 µM: 98%
  remaining activity at 50 µM: 57%

## CC=C(C)C(=O)O[C@H]1[C@@H](OC(=O)CC(C)C)c2c(ccc3ccc(=O)oc23)OC1(C)C [praeruptorin E]
[1]
  CYTOTOXICITY (% of vehicle control) Mean: -1.25 % of vehicle control
[2]
  activity: 123%
[2]; [4]
  SGLT2/SGLT1 ACTIVITY RATIO 5 uM Mean: 1.7
[3]
  SGLT2/SGLT1‐50μmol/L (ratio of SGLT2 to SGLT1 activities with 50 μmol/L inhibitor): 3.1
  activity: 73%

## CCCCN1CCCCC1C(=O)Nc1c(C)cccc1C (stereo not drawn) [Bupivacaine HCl monohydrate]
[1]
  CY[…] 50 mM: -2.27
[2]
  remaining activity at 5 µM: 72%
  remaining activity at 50 µM: 50%
[3]
  remaining activity at 5 µM: 68%
  remaining activity at 50 µM: 36%

## CC=C(C)C(=O)O[C@@H]1[C@H](OC(C)=O)c2c(ccc3ccc(=O)oc23)OC1(C)C [praeruptorin A]
[1]
  CYTOTOXICITY (% of vehicle control) Mean: -0.825 % of vehicle control
[2]
  activity: 111%
[2]; [4]
  SGLT2/SGLT1 ACTIVITY RATIO 5 uM Mean: 1.2
[3]
  SGLT2/SGLT1‐50μmol/L (ratio of SGLT2 to SGLT1 activities with 50 μmol/L inhibitor): 3.1
  activity: 93%

## COc1cc(O)cc(/C=C/c2cccc(O)c2)c1 [Thunalbene]
[1]
  CYTOTOXICITY: -81
[2]
  remaining activity at 5 µM: 108%
  remaining activity at 50 µM: 148%
[3]
  remaining activity at 5 µM: 106%
  remaining activity at 50 µM: 145%

## CCN(CC)CCOC(=O)C1(c2ccccc2)CCCC1 [Caramiphen HCl]
[1]
  CYTOTOXICITY (% of vehicle control) Mean: -5.41 % of vehicle control
[2]
  activity: 88%
[2]; [4]
  SGLT2/SGLT1 ACTIVITY RATIO 5 uM Mean: 0.9
[3]
  activity: 101%

## O=c1c2ccccc2[nH]c(=S)n1CCN1CCC(=C(c2ccc(F)cc2)c2ccc(F)cc2)CC1 [Diacylglycerol Kinase Inhibitor II]
[1]
  CYTOTOXICITY: -13
[2]
  remaining activity at 5 µM: 106%
  remaining activity at 50 µM: 85%
[3]
  remaining activity at 5 µM: 105%
  remaining activity at 50 µM: 89%

## C/C=C(/C)C(=O)O[C@@H]1Cc2c(ccc3ccc(=O)oc23)OC1(C)C [Selinidin]
[1]
  CYTOTOXICITY (% of vehicle control) Mean: -6 % of vehicle control
[2]
  activity: 94%
[2]; mean inhibition with 50 μmol/L inhibitor
  inhibition at 50 µM: 25%
[2]; [4]
  SGLT2/SGLT1 ACTIVITY RATIO 5 uM Mean: 0.952
[3]
  activity: 99%
[3]; mean inhibition with 50 μmol/L inhibitor, read-out: SGLT1 inhibition
  inhibition at 50 µM: 12%
